From patent publication US7763641B2, “Broadspectrum heterocyclic substituted phenyl containing sulfonamide HIV protease inhibitors” (Tibotec Pharmaceuticals Ltd., priority 2001, dated 2010)
Read-outs that look alike come from different tables or passages of the source.

Assays:
HIV strain A = experiment: Cellular anti-HIV assay, clinically isolated mutant strain A; format: cell-based; settings: FR=EC50 (mutant strain)/EC50 (HIV-1 strain LAI)
Procedure: (§1) HIV- or mock-infected MT4 cells were incubated for five days in the presence of various concentrations of the inhibitor. […] Cell viability is measured by measuring the concentration of MTT, a yellow, water soluble tetrazolium dye that is converted to a purple, water insoluble formazan in the mitochondria of living cells only. Upon solubilization of the resulting formazan crystals with isopropanol, the absorbance of the solution is monitored at 540 nm. The values correlate directly to the number of living cells remaining in the culture at the completion of the five day incubation. The inhibitory activity of the compound was monitored on the virus-infected cells and was expressed as EC50 and EC90. These values represent the amount of the compound required to protect 50% and 90%, respectively, of the cells from the cytopathogenic effect of the virus. […] The selectivity index (SI) (ratio CC50/EC50) is an indication of the selectivity of the anti-HIV activity of the inhibitor. Wherever results are reported as e.g. pEC50 or pCC50 values, the result is expressed as the negative logarithm of the result expressed as EC50 or CC50 respectively.
(§2) Because of the increasing emergence of drug resistant HIV strains, the present compounds were tested for their potency against clinically isolated HIV strains harboring several mutations (Table 7 and 8).
(§3) As a measure of the broad spectrum activity of the present compounds, the fold resistance (FR), defined as FR=EC50 (mutant strain)/EC50 (HIV-1 strain LAI), was determined.

HIV strain E = experiment: Cellular anti-HIV assay, clinically isolated mutant strain E; format: cell-based; settings: FR=EC50 (mutant strain)/EC50 (HIV-1 strain LAI)
Procedure: as §1, §2, §3

HIV strain C = experiment: Cellular anti-HIV assay, clinically isolated mutant strain C; format: cell-based; settings: FR=EC50 (mutant strain)/EC50 (HIV-1 strain LAI)
Procedure: as §1, §2, §3

HIV-1 strain LAI = experiment: Cellular anti-HIV assay (MTT), wild type strain; format: cell-based; settings: for pEC50: MT4 cells, five days, MTT, HIV-1 strain LAI, Tables 1-6; for WT (pEC50 against wild type HIV-LAI strain): Table 8
Procedure: The compounds of the present invention were examined for anti-viral activity in a cellular assay. […] The cellular assay was performed according to the following procedure.

HIV strain D = experiment: Cellular anti-HIV assay, clinically isolated mutant strain D; format: cell-based; settings: FR=EC50 (mutant strain)/EC50 (HIV-1 strain LAI)
Procedure: as §1, §2, §3

HIV strain B = experiment: Cellular anti-HIV assay, clinically isolated mutant strain B; format: cell-based; settings: FR=EC50 (mutant strain)/EC50 (HIV-1 strain LAI)
Procedure: as §1, §2, §3

mock-infected MT4 cells = experiment: Toxicity on mock-infected cells (MTT)
Procedure: as §1, §3

HIV strain F = experiment: Cellular anti-HIV assay, clinically isolated mutant strain F; format: cell-based; settings: FR=EC50 (mutant strain)/EC50 (HIV-1 strain LAI)
Procedure: as §1, §2, §3

[1] = pCC50 with mock transfected cells

Compound	A (FR value towards mutant A) (HIV strain A)	E (FR towards mutant E) (HIV strain E)	C (FR towards mutant C) (HIV strain C)	pEC50 (HIV-1 strain LAI)	WT (pEC50 against wild type HIV-LAI strain) (HIV-1 strain LAI)	D (FR towards mutant D) (HIV strain D)	B (FR towards mutant B) (HIV strain B)	Tox (pCC50) (mock-infected MT4 cells)	F (FR towards mutant F) (HIV strain F)	Tox (pCC50) (mock-infected MT4 cells; [1])
CC(C)CN(CC(O)C(Cc1ccccc1)NC(=O)OC1COC2OCCC12)S(=O)(=O)c1ccc(-c2csc(N)n2)cc1 (stereo not drawn) [Compound 2]	26	8.9	3.0	8.5	8.5	9.3	10.0	4.07	91	–
CC(=O)Nc1nc(-c2ccc(S(=O)(=O)N(CC(C)C)CC(O)C(Cc3ccccc3)NC(=O)OC3COC4OCCC34)cc2)cs1 (stereo not drawn) [Compound 3]	39	17	7.4	8.3	8.3	26	8.9	–	151	4.11
CC(C)CN(CC(O)C(Cc1ccccc1)NC(=O)OC1COC2OCCC12)S(=O)(=O)c1ccc(-c2csc(NCCCN(C)C)n2)cc1 (stereo not drawn) [Compound 6]	6.2	6.6	1.2	7.5	7.5	3.8	4.7	4.69	79	–
Cc1nc(-c2ccc(S(=O)(=O)N(CC(C)C)CC(O)C(Cc3ccccc3)NC(=O)OC3COC4OCCC34)cc2)co1 (stereo not drawn) [Compound 35]	11	8.3	8.3	8.4	8.4	6.2	10.5	<4.0	42	–
CC(C)CN(C[C@@H](O)[C@H](Cc1ccccc1)NC(=O)O[C@H]1CO[C@H]2OCC[C@H]21)S(=O)(=O)c1ccc(-c2noc(-c3ccco3)n2)cc1 [Compound 38, [(1S,2R)-3-[N-[4-(5-(furan-2-yl)oxadiazol-3-yl)phenylsulfonyl]-N-(2-methylpropyl)amino]-2-hydroxy-1-(phenylmethyl)propyl]carbamic acid, [(3R,3aS,6aR)-hexahydrofuro[2,3-b]furan-3-yl]ester]	30	9.5	6.8	8.4	8.4	14.8	23	–	44.7	<4.49
COc1cccc(-c2nc(-c3ccc(S(=O)(=O)N(CC(C)C)CC(O)C(Cc4ccccc4)NC(=O)OC4COC5OCCC45)cc3)co2)c1 (stereo not drawn) [Compound 44]	39	13	8.1	8.0	8.0	15	14	–	77	<4.49
[(1S,2R)-2-hydroxy-3-[N-[4-(2-methylaminothiazol-4-yl)phenylsulfonyl]-N-(2-methylpropyl)amino]-1-(phenylmethyl)propyl]carbamic acid, [(3R,3aS,6aR)-hexahydrofuro[2,3-b]furan-3-yl]ester [Compound 1]	5.4	5.0	1.2	8.5	8.5	7.9	2.1	–	42	4.19
